Data reported in paper PMC8997399, “High-Throughput Screening to Identify Inhibitors of Plasmodium falciparum Importin α” (Cells, 2022).
“And” between values parts separate entries of the source, which are not always exact repeats. Equal entries are not always repeated. Where two headings read alike, the source gives them in different places.

Experiments:
TgIMPα = TgIMPα (Toxoplasma gondii, UniProt A0A125YID0); assay: biochemical; type: binding; details: for % Inhibition of IMPα-NLS Interaction TgIMPα: compounds at 10 μM, TgIMPα (5 nM):T-ag-NLS-GFP (30 nM), relative to 1% DMSO control
Description: (§1) PfIMPα, TgIMPα, Mus musculus IMPα (MmIMPα), ΔIBBMmIMPα, and β1 (MmIMPβ) GST fusion proteins were expressed and purified essentially as previously. His-tagged TGS1-NLS-GFP, PfIMPα and TgIMPα proteins were purified using Ni^2+-affinity chromatography as described. His-tagged SV40 T-ag-NLS-GFP was purified as previously. Biotinylation of GST-tagged proteins was carried out using the Sulfo-NHS-Biotin reagent (Pierce, Rockford, IL, USA) as described previously. AlphaScreen binding assay was performed as described previously.
(§2) Plates were read for an Alphascreen signal on an Envision plate reader (PerkinElmer, Waltham, MA, USA), with signals from the negative control wells (no bait control) on each plate subtracted.

PfIMPα [1] = biological target: T1, PfIMPα (Plasmodium falciparum, UniProt Q8IAW0); assay: biochemical; type: binding; details: for % Inhibition of IMPα-NLS Interaction PfIMPα: compounds at 10 μM, PfIMPα (10 nM):TGS1-NLS-GFP (60 nM), relative to 1% DMSO control, quadruplicate
Description: as §1
Then, 10 nM biotinylated PfIMPα and 60 nM TGS1-NLS-GFP were used with library compounds, screened at 10 µM final concentration.
Briefly, 5 μL of each compound in DMSO was added to quadruplicate wells of a 384-well plate along with appropriate controls including DMSO alone and ivermectin, as previously, using a JANUS Modular Dispense Technology (MDT) robotic system (PerkinElmer, Waltham, MA, USA). This was followed by successive 7 and 5 μL additions, respectively, of PfIMPα (10 nM) and TGS1-NLS-GFP (60 nM) or PBS (“no bait” control), respectively, and 30 min incubation at room temperature. […] Then, 4 µL of the AlphaScreen donor beads (1/40 dilution of GSH. acceptor beads in PBS) was finally added to each well using a Multidrop, followed by a further incubation of 2 h at room temperature in the dark.
as §2

PfIMPα [2] = biological target: T1, PfIMPα; assay: Thermostability assay (TSA), PfIMPα; type: binding
Description: (§3) The effect of inhibitory compounds on IMPα thermostability was tested, as previously, using the fluorescent dye SYPRO Orange (Thermo Fisher Scientific, Waltham, MA, USA) and the Qiagen Rotor-Gene Q6 plex instrument programmed in the melt curve mode. Increasing concentrations of compound in 0.5 µL DMSO were added to 24.5 µL recombinant protein (2 µM) in phosphate-buffered saline (PBS). Next, 1 µL of SYPRO Orange dye was added, the reaction mixture heated at 0.5 °C/min from 27 °C to 90 °C, and the fluorescence intensity caused by the SYPRO Orange binding to the proteins monitored (excitation/emission: 530/555 nm). Tm is the temperature at which 50% of the protein is unfolded.

PfIMPα [3] = biological target: T1, PfIMPα; type: binding
MmΔIBBIMPα = biological target: T2, MmΔIBBIMPα (Mus musculus, UniProt P52293); assay: AlphaScreen binding assay, MmΔIBBIMPα:T-ag-NLS-GFP interaction
T2 construct: made in house
Description: as §1, §2

MmIMPα = biological target: T3, MmIMPα (Mus musculus, UniProt P52293); assay: Thermostability assay (TSA), MmIMPα; type: binding
T3 construct: GST; made in house
Description: as §3

HFF cells = assay: MTT assay for host cell cytotoxicity; type: cell-based, human
Description: The MTT assay was used to measure the cytotoxicity of the small molecules against the HFF cells as described. Briefly, freshly confluent HFF cells in a 96-well culture plate were treated with increasing concentrations of compounds for 48 h, prior to the MTT assay.

MmIMPα/β heterodimer = biological target: T4, MmIMPα/β heterodimer (Mus musculus, UniProt P52293); assay: AlphaScreen binding assay, MmIMPα/β:T-ag-NLS-GFP interaction; details: compounds at 10 μM, MmIMPα/β (5 nM):T-ag-NLS-GFP (30 nM), relative to 1% DMSO control
T4 construct: GST; made in house
Description: as §1, §2

P. falciparum = details: cited from earlier work
T. gondii tachyzoites = details: cited from earlier work
[4] = pooled, mean ± SEM (n = 3), read-out: IC50 TgIMPα:T-ag-NLS-GFP
[5] = concentrations higher than 20 µM
[6] = pooled, mean ± SEM (n = 3), read-out: IC50 PfIMPα:TGS1-NLS-GFP
[7] = compounds at 10 μM, ΔIBBMmIMPα (5 nM):T-ag-NLS-GFP (30 nM), relative to 1% DMSO control
[8] = pooled, mean ± SEM (n = 3), read-out: IC50 MmΔIBBIMPα:T-ag-NLS
[9] = single experiment (Figure 3), IMPα 5 nM, NLS 30 nM, read-out: IC50 MmΔIBBIMPα:T-ag-NLS-GFP
[10] = concentrations of 75 µM or higher

TgIMPα, sequence (A0A125YID0 entry or part of it): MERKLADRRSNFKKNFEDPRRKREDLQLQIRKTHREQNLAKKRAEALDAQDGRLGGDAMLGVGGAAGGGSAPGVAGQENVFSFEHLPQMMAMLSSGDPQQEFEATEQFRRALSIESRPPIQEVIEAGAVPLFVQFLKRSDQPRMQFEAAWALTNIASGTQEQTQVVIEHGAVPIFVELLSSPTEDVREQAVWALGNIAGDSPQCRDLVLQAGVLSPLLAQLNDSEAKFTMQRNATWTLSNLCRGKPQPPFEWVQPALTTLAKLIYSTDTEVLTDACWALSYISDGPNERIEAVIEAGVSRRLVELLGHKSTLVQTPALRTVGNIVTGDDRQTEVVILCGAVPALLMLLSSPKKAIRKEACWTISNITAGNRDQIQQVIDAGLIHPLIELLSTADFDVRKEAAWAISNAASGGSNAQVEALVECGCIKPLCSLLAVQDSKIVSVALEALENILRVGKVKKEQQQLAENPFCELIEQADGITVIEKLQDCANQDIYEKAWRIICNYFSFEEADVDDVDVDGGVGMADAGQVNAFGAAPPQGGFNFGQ
T1 sequence (Q8IAW0 entry or part of it): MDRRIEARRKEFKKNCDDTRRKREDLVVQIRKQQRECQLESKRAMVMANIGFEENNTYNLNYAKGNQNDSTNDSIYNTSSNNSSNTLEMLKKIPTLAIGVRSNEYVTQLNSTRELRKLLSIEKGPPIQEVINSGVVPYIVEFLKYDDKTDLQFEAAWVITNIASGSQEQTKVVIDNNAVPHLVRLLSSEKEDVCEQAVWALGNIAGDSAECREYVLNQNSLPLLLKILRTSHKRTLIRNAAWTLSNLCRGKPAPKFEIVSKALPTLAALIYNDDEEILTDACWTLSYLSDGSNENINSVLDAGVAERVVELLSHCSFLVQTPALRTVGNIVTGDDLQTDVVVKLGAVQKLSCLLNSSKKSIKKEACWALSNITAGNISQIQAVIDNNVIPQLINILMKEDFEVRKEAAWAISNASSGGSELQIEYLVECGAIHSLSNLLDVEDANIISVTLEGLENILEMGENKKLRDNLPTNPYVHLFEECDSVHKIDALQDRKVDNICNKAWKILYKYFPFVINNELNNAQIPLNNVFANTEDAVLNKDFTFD

CC(C)(C)c1ccc(S(=O)(=O)/C=C/C#N)cc1 [Bay 11-7085]
% Inhibition of IMPα-NLS Interaction TgIMPα (TgIMPα): 0% | IC50 (TgIMPα; [4]): 30400 ± 600 nM | fold higher IC50 for TgIMPα-NLS compared to PfIMPα-TGS-NLS interaction (TgIMPα; selectivity for PfIMPα): ~16 fold | % Inhibition of IMPα-NLS Interaction PfIMPα (PfIMPα [1]): 75% | increase of stability of PfIMPα (PfIMPα [2]; [5]): 9–11 °C | thermostability of PfIMPα reached (PfIMPα [2]; [5]): 48–50 °C | reduction of stability of PfIMPα (PfIMPα [2]; concentrations up to 10 µM): 6 °C | thermostability of PfIMPα reached (PfIMPα [2]; concentrations up to 10 µM): 39 °C | IC50 (PfIMPα [3]; [6]): 2000 nM and 1900 nM | fold lower IC50 for PfIMPα compared to both TgIMPα and MmIMPα (PfIMPα [3]; range over both comparisons): 12-16 fold | % Inhibition of IMPα-NLS Interaction MmΔIBBIMPα (MmΔIBBIMPα; [7]): 9% | IC50 (MmΔIBBIMPα; [8]): 23000 nM and 23400 nM | fold higher IC50 for ΔIBBMmIMPα-NLS compared to PfIMPα-TGS-NLS interaction (MmΔIBBIMPα; selectivity for PfIMPα): ~12 fold | IC50 (MmΔIBBIMPα; [9]): 31000 nM | MmIMPα stable only up to (MmIMPα; 10–20 µM): 30–36 °C | reduction of thermostability of MmIMPα (MmIMPα; 10–20 µM): 9–15 °C | CC50 (HFF cells): 8200 ± 700 nM

O=C(/C=C/c1ccc(O)c(O)c1)OCCc1ccccc1 [CAPE, Caffeic acid phenethyl ester]
IC50 (TgIMPα): 2900 ± 900 nM | inhibition at 10 µM (TgIMPα; read-out: % Inhibition of IMPα-NLS Interaction TgIMPα): 62% | IC50 (PfIMPα [1]): 1800 ± 300 nM | inhibition at 10 µM (PfIMPα [1]; read-out: % Inhibition of IMPα-NLS Interaction PfIMPα): 84% | increase in thermostability of PfIMPα (PfIMPα [2]; [10]): 2 °C | thermostability of PfIMPα reached (PfIMPα [2]; [10]): 47 °C | inhibition at 10 µM (MmΔIBBIMPα; compounds at 10 μM, ΔIBBMmIMPα (5 nM):T-ag-NLS-GFP (30 nM), relative to 1% DMSO control, read-out: % Inhibition of IMPα-NLS Interaction MmΔIBBIMPα): 92% | IC50 (MmΔIBBIMPα; [8]): 700 ± 100 nM | change in stability of MmIMPα (MmIMPα; up to 100 µM): did not elicit any marked change in stability | inhibition at 10 µM (MmIMPα/β heterodimer; read-out: % Inhibition of IMPα-NLS Interaction MmIMPα/β): 14%

CC(=O)OC[C@H]1O[C@@H]([S-])[C@H](OC(C)=O)[C@@H](OC(C)=O)[C@@H]1OC(C)=O.CCP(CC)CC.[Au+] [auranofin]
activity against P. falciparum (P. falciparum): possess activity | % Inhibition of IMPα-NLS Interaction TgIMPα (TgIMPα): 90% | IC50 (TgIMPα; [4]): 80 ± 10 nM | IC50 (TgIMPα; single experiment (Figure 3), IMPα 5 nM, NLS 30 nM, read-out: IC50 TgIMPα:T-ag-NLS-GFP): 50 nM | % Inhibition of IMPα-NLS Interaction PfIMPα (PfIMPα [1]): 94% | activity against cultured T. gondii (T. gondii tachyzoites): possess activity | PfIMPα stable only up to (PfIMPα [2]; concentrations as low as 5 μM): 32–35 °C | reduction of thermostability of PfIMPα (PfIMPα [2]; concentrations as low as 5 μM): 12–15 °C | IC50 (PfIMPα [3]; [6]): 70 ± 10 nM | IC50 (PfIMPα [3]; range over PfIMPα, TgIMPα and MmΔIBBIMPα interactions, read-out: IC50 values of all three IMPα:NLS interactions): 60 to 80 nM | IC50 (PfIMPα [3]; single experiment (Figure 3), IMPα 5 nM, NLS 30 nM, read-out: IC50 PfIMPα:TGS1-NLS-GFP): 80 nM | % Inhibition of IMPα-NLS Interaction MmΔIBBIMPα (MmΔIBBIMPα; [7]): 91% | IC50 (MmΔIBBIMPα; [8]): 60 ± 10 nM | IC50 (MmΔIBBIMPα; [9]): 50 nM | MmIMPα stable only up to (MmIMPα; concentrations as low as 5 μM): 32–35 °C | reduction of thermostability of MmIMPα (MmIMPα; concentrations as low as 5 μM): 12–15 °C | % Inhibition of IMPα-NLS Interaction MmIMPα/β (MmIMPα/β heterodimer): 100% | CC50 (HFF cells; MTT assay, 48 h, mean ± SD (n = 2), read-out: CC50 HFF cells): 5100 nM | cytotoxicity to HFF cells (HFF cells; at concentrations < c. 5 µM): essentially absent
